From patent publication US4241077A, “β-Oxo-3-thiophenepropionitrile and β-amino-2-(3)-thiopheneacrylonitriles” (American Cyanamid Company, priority 1979, dated 1980)

What was measured:
[1] = system: adjuvant induced arthritis (Freund's adjuvant) in rats; assay: Adjuvant induced arthritis in rats (oral, once daily days 0 through 13 post challenge); type: in vivo, Royal Hart, Wistar strain rats
Procedure: Groups of three Royal Hart, Wistar strain rats weighing 200±10 grams each were injected intradermally in the right hind paw with Freund's adjuvant (dried human tubercle bacilli in a mineral oil vehicle) at a dose of 2 mg./kg. of body weight. Test compounds were administered orally in a 1.5% starch vehicle at various doses once daily on days 0 through 13 post challenge. Control rats were treated in a similar manner, but given only starch vehicle. On the 14th and 21st day post challenge the diameter of the injected paw (primary lesion) was measured by micrometer caliper. The volume of inflamed paws were estimated from these measurements and the results are expressed as percent inhibition of swelling as compared to controls. At the same time, the other inflamed sites, such as ears, paws and tail (secondary lesions) were observed and each rat was graded as to degree of inflammation and swelling present. The grading is based on a scale of 0 to 24, where 0 represents a complete absence of induced arthritic nodules and 24 represents the maximum degree of inflammation. The mean grade for each treated group is calculated and the effects of each compound are expressed as percent inhibition of the control grade. Table I below records the results of tests conducted with the compounds of this invention and known anti-inflammatory agents. The compounds of this invention appear to suppress the progression of the arthritis and associated joint deterioration.

[2] = system: adjuvant induced experimental polyarthritis; conditions: result in words; literature; cited from earlier work

With `CC(=O)Oc1ccccc1C(=O)O` [Aspirin, reference compound] as the compound, how does the “Inhibition of Swelling (primary lesion)” value ([1]; oral 50 mg./kg., Day 14) read?
Its value is 23%.

What about the “Inhibition of Swelling (primary lesion)” value ([1]; oral 50 mg./kg., Day 21) of the same compound?
Its value is 3%.

And the “Inhibition of Swelling (primary lesion)” value ([1]; oral 100 mg./kg., Day 14)?
Its value is 36%.

And the “Inhibition of Swelling (primary lesion)” value ([1]; oral 100 mg./kg., Day 21)?
Its value is 13%.

And the “Inhibition of Swelling (primary lesion)” value ([1]; oral 200 mg./kg., Day 14)?
Its value is 48%.

And the “Inhibition of Swelling (primary lesion)” value ([1]; oral 200 mg./kg., Day 21)?
The value was 27%.

What about the “Inhibition of Swelling (primary lesion)” value ([1]; oral 400 mg./kg., Day 14) of the same compound?
Its value is 73%.

What about the “Inhibition of Swelling (primary lesion)” value ([1]; oral 400 mg./kg., Day 21) of the same compound?
The value was 48%.

For `COc1ccc2c(c1)c(CC(=O)O)c(C)n2C(=O)c1ccc(Cl)cc1` [Indomethocin, reference compound], which “arthritic paw swelling; joint and bone deterioration” value [2] is on record?
The value was “prevent joint and bone deterioration”.

What about the “Inhibition of Swelling (primary lesion)” value ([1]; oral 0.25 mg./kg., Day 14) of the same compound?
Its value is 30%.

What about the “Inhibition of Swelling (primary lesion)” value ([1]; oral 0.25 mg./kg., Day 21) of the same compound?
Its value is 4%.

What about the “Inhibition of Swelling (primary lesion)” value ([1]; oral 0.5 mg./kg., Day 14) of the same compound?
The value was 40%.

And the “Inhibition of Swelling (primary lesion)” value ([1]; oral 0.5 mg./kg., Day 21)?
Its value is 20%.

And the “Inhibition of Swelling (primary lesion)” value ([1]; oral 1 mg./kg., Day 14)?
The value was 46%.

What about the “Inhibition of Swelling (primary lesion)” value ([1]; oral 1 mg./kg., Day 21) of the same compound?
Its value is 19%.

And the “Inhibition of Swelling (primary lesion)” value ([1]; oral 2 mg./kg., Day 14)?
The value was 51%.

What about the “Inhibition of Swelling (primary lesion)” value ([1]; oral 2 mg./kg., Day 21) of the same compound?
Its value is 24%.

What does the source list for `CCCCC1C(=O)N(c2ccccc2)N(c2ccccc2)C1=O` [Phenylbutazone, reference compound]?
Inhibition of Swelling (primary lesion) ([1]; oral 18.8 mg./kg., Day 14): 31%; Inhibition of Swelling (primary lesion) ([1]; oral 18.8 mg./kg., Day 21): 7%; Inhibition of Swelling (primary lesion) ([1]; oral 37.5 mg./kg., Day 14): 56%; Inhibition of Swelling (primary lesion) ([1]; oral 37.5 mg./kg., Day 21): 14%; Inhibition of Swelling (primary lesion) ([1]; oral 75 mg./kg., Day 14): 62%; Inhibition of Swelling (primary lesion) ([1]; oral 75 mg./kg., Day 21): 28%; Inhibition of Swelling (primary lesion) ([1]; oral 150 mg./kg., Day 14): 75%; Inhibition of Swelling (primary lesion) ([1]; oral 150 mg./kg., Day 21): 44%

With `N#CC=C(N)c1ccsc1` [β-Amino-3-thiopheneacrylonitrile, β-amino-3-thiopheneacrylonitrile] as the compound, how does the “Dead/Treated at 21 Days” value ([1]; oral 50 mg./kg. of body weight) read?
The value was 2/18.

And the “Inhibition of Swelling (primary lesion)” value ([1]; oral 50 mg./kg., Day 14)?
The value was 52%.

And the “Mean Weight Gain” value ([1]; oral 50 mg./kg., Day 14)?
Its value is 47 grams.

And the “Inhibition of Swelling (primary lesion)” value ([1]; oral 50 mg./kg., Day 21)?
Its value is 41%.

What about the “Mean Weight Gain” value ([1]; oral 50 mg./kg., Day 21) of the same compound?
Its value is 54 grams.

Which “Dead/Treated at 21 Days” value ([1]; oral 50 mg./kg. of body weight) does the source give for `N#CC=C(N)c1cccs1` [β-Amino-2-thiopheneacrylonitrile, β-amino-2-thiopheneacrylonitrile] here?
The value was 1/33.

And the “% Inhibition of Control Grade (secondary lesion)” value (from here on “% Inhibition of Control Grade”) ([1]; oral 50 mg./kg., Day 14)?
The value was 21%.

And the “Inhibition of Swelling (primary lesion)” value ([1]; oral 50 mg./kg., Day 14)?
Its value is 44%.

What about the “Mean Weight Gain” value ([1]; oral 50 mg./kg., Day 14) of the same compound?
Its value is 54 grams.

What about the “% Inhibition of Control Grade” value ([1]; oral 50 mg./kg., Day 21) of the same compound?
Its value is 6%.

And the “Inhibition of Swelling (primary lesion)” value ([1]; oral 50 mg./kg., Day 21)?
Its value is 23%.

And the “Mean Weight Gain” value ([1]; oral 50 mg./kg., Day 21)?
The value was 50 grams.

What about the “Dead/Treated at 21 Days” value ([1]; oral 100 mg./kg. of body weight) of the same compound?
The value was 2/18.

What about the “% Inhibition of Control Grade” value ([1]; oral 100 mg./kg., Day 14) of the same compound?
Its value is 25%.

And the “Inhibition of Swelling (primary lesion)” value ([1]; oral 100 mg./kg., Day 14)?
Its value is 49%.

And the “Mean Weight Gain” value ([1]; oral 100 mg./kg., Day 14)?
The value was 45 grams.

And the “% Inhibition of Control Grade” value ([1]; oral 100 mg./kg., Day 21)?
Its value is 16%.

And the “Inhibition of Swelling (primary lesion)” value ([1]; oral 100 mg./kg., Day 21)?
Its value is 27%.

And the “Mean Weight Gain” value ([1]; oral 100 mg./kg., Day 21)?
The value was 51 grams.

What about the “Dead/Treated at 21 Days” value ([1]; oral 200 mg./kg. of body weight) of the same compound?
The value was 6/18.

What about the “% Inhibition of Control Grade” value ([1]; oral 200 mg./kg., Day 14) of the same compound?
Its value is 80%.

What about the “Inhibition of Swelling (primary lesion)” value ([1]; oral 200 mg./kg., Day 14) of the same compound?
The value was 70%.

And the “Mean Weight Gain” value ([1]; oral 200 mg./kg., Day 14)?
The value was 36 grams.

What about the “% Inhibition of Control Grade” value ([1]; oral 200 mg./kg., Day 21) of the same compound?
Its value is 57%.

What about the “Inhibition of Swelling (primary lesion)” value ([1]; oral 200 mg./kg., Day 21) of the same compound?
Its value is 61%.

What about the “Mean Weight Gain” value ([1]; oral 200 mg./kg., Day 21) of the same compound?
The value was 53 grams.

Which results are given for `N#CCC(=O)c1ccsc1` [β-Oxo-3-thiophenepropionitrile, β-oxo-3-thiophenepropionitrile]?
Dead/Treated at 21 Days ([1]; oral 50 mg./kg. of body weight): 1/18; Inhibition of Swelling (primary lesion) ([1]; oral 50 mg./kg., Day 14): 61%; Mean Weight Gain ([1]; oral 50 mg./kg., Day 14): 53 grams; Inhibition of Swelling (primary lesion) ([1]; oral 50 mg./kg., Day 21): 26%; Mean Weight Gain ([1]; oral 50 mg./kg., Day 21): 50 grams
